How the values were obtained:
human IgE = assay: 2D gel immunoblot of TG extract with serum pool from 8 TG-allergic donors, IgE reactivity; type: binding; settings: for Antibody reactvity IgE/IgG: IgE: E− = not IgE reactive
Description: (§1) 2D DIGE (Difference Gel Electrophoresis) analysis. The complete 2D DIGE analysis was performed by Applied Biomics (Hayward, Calif., US). Briefly, TG extract was run on two 2D gels (3-10 pH range, 12% SDS-acrylamide gel), one was Coomassie blue stained, the other was blotted onto a nitrocellulose membrane. The membrane was then incubated with 5% dried milk in PBS/0.05% Tween to block non-specific binding and subsequently probed with a serum pool from 8 TG-allergic individuals at a dilution of 1:250. IgE and IgG binding was detected using goat anti-human IgE and rabbit anti-human IgG (Sigma-Aldrich, St. Louis, Mo.) and visualized using Cy2-conjugated donkey anti-goat IgG and Cy5-conjugated donkey […] IgG antibodies (Biotium, Hayward, Calif.).
(§2) Mass spectral protein identification was performed by Applied Biomics (Hayward, Calif., US). Briefly, spots of interest were selected from the 2D blot and the corresponding spots were identified on the stained SDS gel and cut out, washed several times to remove staining dye and other inhibitory chemicals. The spots were then dried to absorb maximum digestion buffer. Dried 2D gel spots were rehydrated in digestion buffer containing trypsin. Proteins were digested in-gel at 37° C. and then extracted from the gel with TFA extraction buffer. Subsequently the peptides were desalted using C-18 Zip-tips (Millipore) and mixed with CHCA matrix (alpha-cyano-4-hydroxycinnamic acid) and spotted into wells of a MALDI plate. Mass spectra of the peptides in each sample were obtained using an Applied Biosystems Proteomics Analyzer. The spectra were compared to the amino acid sequences encoded by putative ORFs from the de novo assembled TG pollen transcripts. […] The amino acid sequences encoded by these ORFs were clustered using a custom script at a sequence similarity threshold of 90% to group together highly similar protein sequences. These sequences are encoded by different transcripts from the current assembly, which could arise from splice variants, allelic variation between cells of TG pollen, and from gene families with multiple members. Amino acid sequences that form one cluster are assigned one putative protein ID (Table 1).

human IgG = assay: 2D gel immunoblot of TG extract with serum pool from 8 TG-allergic donors, IgG reactivity; type: binding
Description: as §1, §2

[1] = tested on: PBMCs from TG allergic donors; assay: IL-5 ELISPOT of TG extract-expanded PBMCs from TG allergic donors (peptide pools, single peptides, TG extract); type: cell-based, human
Description: Each donor was recruited following Institutional Review Board approval (Federal Wide Assurance number 00000032) and informed consent and assigned a study identification number. Donors were tested for allergen reactivity by skin prick tests to extracts from 32 common allergens. TG allergic donors were identified as having a skin reaction with a wheal of 5 mm in diameter to TG and a clinical history consistent with seasonal grass pollen allergy. Donors that had received specific immunotherapy were excluded. Non-allergic donors were identified as having negative skin prick tests to all allergens and no clinical history of allergy.
PBMCs were isolated by density gradient centrifugation from one unit of blood (˜450 ml) and cryo-preserved as described previously (12). For in vitro expansions, PBMCs were thawed and cultured in RPMI 1640 (Ω Scientific, Tarzana, Calif.) supplemented with 5% human AB serum (Cellgro, Herndon, Va.) at a density of 2×10^6 cells/ml in 24-well plates (BD Biosciences, San Jose, Calif.) and stimulated with TG pollen extract ([…]) (Greer, Lenoir, N.C.). Cells were kept at 37° C., 5% CO2 and additional IL-2 and IL-7 (10 U/ml, eBioscience, San Diego, Calif.) was added every 3 d after initial antigenic stimulation. On day 14, cells were harvested and screened for reactivity against TG-specific peptide pools (16-25 peptides/pool, averaging 20 peptides/pool). On day 17, peptides from positive pools were tested individually to identify the reactive epitopes.
The production of IL-5 from cultured PBMCs in response to antigen stimulation was measured by ELISPOT as described previously (12). Briefly, 1×10^5 cells/well were incubated with peptide, peptide pool or TG extract (10 μg/ml, 5 μg/ml and 50 μg/ml, respectively). After 24 h, cells were removed and plates were incubated with 2 μg/ml biotinylated anti-human IL-5 Ab (Mabtech) at 37° C. After 2 h, plates were washed and avidin-peroxidase-complex was added (Vector Laboratories, Burlingame, Calif.) for 1 h at RT. Peroxidase-conjugated spots were developed with 3-amino-9-ethylcarvazole solution (Sigma-Aldrich, St. Louis, Mo.). Criteria for peptide pool positivity were 100 SFCs/106 PBMCs, p 0.05, and a stimulation index (SI) 2. Criteria for individual peptides were the same except a minimum of 20 SFCs was counted as positive.

[2] = tested on: PBMCs from TG allergic donors; assay: IFNg ELISPOT of TG extract-expanded PBMCs from TG allergic donors (single peptides); type: cell-based, human; settings: T cell recognition in TG allergic patients; for Total response IFNg Events: number of positive responses
[3] = tested on: PBMCs from TG allergic donors; assay: as above; type: cell-based, human; settings: number of positive response events
[4] = tested on: PBMCs from TG allergic donors; assay: as above; type: cell-based, human; settings: T cell recognition in TG allergic patients; number of response events
[5] = tested on: PBMCs from TG allergic donors; assay: as above; type: cell-based, human; settings: TG allergic patients; number of positive responses
[6] = tested on: PBMCs from TG allergic donors; assay: IFNg ELISPOT of TG extract-expanded PBMCs (single peptides); type: cell-based, human; settings: for Total response IFNg Events: number of positive response events to the 15-mer peptide
[7] = reactivity of the parent TG antigen, given per peptide
[8] = reactivity of the parent TG antigen, given per peptide, G− = not IgG reactive
[9] = T cell recognition in TG allergic patients, number of positive responses
[10] = reactivity of the parent antigen
[11] = reactivity of the parent antigen, G+ = IgG reactive, G− = not
[12] = number of positive response events to the 15-mer peptide

With “882 (DVYPTVCLPMCVCVL; Phleum pratense) [Peptide 882]” the “Antibody reactvity IgE/IgG: IgE” value (human IgE; [7]) was “E−”, the “Antibody reactvity IgE/IgG: IgG” value (human IgG; [8]) was “G−” and the “Total response IL-5 Events” value [1, 9] was 0. For the same substance, the “Total response IFNg Events” value [2] was 0.

“30285 (VFNDDIQGTASVVLA; Phleum pratense) [Peptide 30285]” was tested, and the “Antibody reactvity IgE/IgG (IgE part)” value (human IgE; E+ / E− part of the cell, reactivity of the parent antigen) was “E+”, the “Antibody reactivity IgE/IgG: IgE” value (human IgE; IgE reactivity (E+/E−) of the source antigen of the peptide) was “E+” and the “Total response IFNg Events” value [3] was 0. The “Antibody reactvity IgE/IgG (IgG part)” value (human IgG; G+ / G− part of the cell, reactivity of the parent antigen) was “G−”, the “Antibody reactivity IgE/IgG: IgG” value (human IgG; IgG reactivity (G+/G−) of the source antigen of the peptide) was “G−” and the “Total response IL-5 Events” value ([1]; IL-5, number of positive response events) was 1. For the same substance, the “Total response IL-5 SFC” value ([1]; IL-5, total SFC) was 67 SFC, the “Total response IL-5 SFC” value ([1]; T cell recognition in TG allergic patients) was 67 SFC and the “Total response IL-5 Events” value ([1]; T cell recognition in TG allergic patients, number of response events) was 1. The “Total response IFNg Events” value [4] was 0.

“82109 (GDLYIFESRAICKYA; Phleum pratense) [Peptide 82109]” was tested, and the “Total response IFNg Events” value [5] was 0, the “Antibody reactvity IgE/IgG (IgE part)” value (human IgE; IgE reactivity of the parent antigen) was “E−” and the “Antibody reactvity IgE/IgG: IgE” value (human IgE; [10]) was “E−”. For the same substance, the “Antibody reactvity IgE/IgG (IgG part)” value (human IgG; IgG reactivity of the parent antigen) was “G−”, the “Antibody reactvity IgE/IgG: IgG” value (human IgG; [11]) was “G−” and the “Total response IL-5 SFC” value ([1]; 15-mer peptide) was 290 SFC. For the same substance, the “Total response IL-5 Events” value ([1]; TG allergic patients, number of positive responses) was 1, the “Total response IL-5 SFC” value ([1]; TG allergic patients, total spot-forming cells) was 290 SFC and the “Total response IL-5 Events” value [1, 12] was 1. The “Total response IFNg Events” value [6] was 0.

For “86231 (IMQLLRDNLTLWTSD; Phleum pratense) [Peptide 86231]”, the “Antibody reactvity IgE/IgG: IgE” value (human IgE; [7]) was “E−”, the “Antibody reactvity IgE/IgG: IgE” value (human IgE; [10]) was “E−” and the “Antibody reactvity IgE/IgG: IgG” value (human IgG; [8]) was “G−”. The “Antibody reactvity IgE/IgG: IgG” value (human IgG; [11]) was “G−”, the “Total response IL-5 Events” value [1, 9] was 0 and the “Total response IL-5 Events” value [1, 12] was 0. The “Total response IFNg SFC” value ([6]; 15-mer peptide) was 73 SFC, the “Total response IFNg Events” value [6] was 1 and the “Total response IFNg SFC” value [2] was 73 SFC. For the same substance, the “Total response IFNg Events” value [2] was 1.

Source: patent US10428124B2, “Timothy grass allergens and methods and uses for immune response modulation” (LA JOLLA INSTITUTE FOR ALLERGY AND IMMUNOLOGY, priority 2012, dated 2019)
